What was measured:
[1] = tested on: Alternaria solani; test: Activity against the early blight pathogen Alternaria solani in the microtiterplate test; assay type: cell-based; conditions: 31 ppm active substance; MTP measured at 405 nm 7 days after inoculation, 18° C.
[2] = tested on: Fusarium culmorum; test: Activity against Fusarium culmorum in the microtiterplate test; assay type: cell-based; conditions: 31 ppm active substance; MTP measured at 405 nm 7 days after inoculation, 18° C.
Procedure: The active compounds were formulated separately as a stock solution having a concentration of 10000 ppm in dimethyl sulfoxide.
The stock solutions were mixed according to the ratio, pipetted onto a micro titer plate (MTP) and diluted with water to the stated concentrations. A spore suspension of Fusarium culmorum in an aqueous biomalt or yeast-bactopeptone-glycerine or DOB solution was then added. The plates were placed in a water vapor-saturated chamber at a temperature of 18° C. Using an absorption photometer, the MTPs were measured at 405 nm 7 days after the inoculation.

[3] = tested on: Sclerotinia sclerotiorum; test: Preventative fungicidal control of white mold on oilseed rape caused by Sclerotinia sclerotiorum; assay type: in vivo; conditions: 100 g/ha, assessed after 14 days, untreated plants 100% infected
Procedure: The compound was dissolved in a mixture of acetone and/or dimethylsulfoxide and the wetting agent/emulsifier Wettol, which is based on ethoxylated alkylphenoles, in a ratio (volume) solvent-emulsifier of 99 to 1 to give a total volume of 5 ml. Subsequently, water was added to total volume of 100 ml. This stock solution was then diluted with the described solvent-emulsifier-water mixture to the final concentration given in the table below. Oilseed rapes were grown in pots to the 13 to 14 leaf stage. These plants were sprayed to run-off with previously described spray solution, containing the concentration of active ingredient or their mixture mentioned in the table below. The plants could air-dry. The next day the applicated rape petals were fixed with 25 μl of 2.5% methylcellulose on leaf 1 and 2. 25 μl of a spore suspension of Sclerotinia sclerotiorum was pipetted on each fixed rape petal. After 14 days at 20° C. and a relative humidity of 60% the extent of fungal attack on the leaves was visually assessed as % diseased leaf area.

## Cc1cc(C2NC(C)C(C)(C)Oc3c(F)cccc32)cnc1C (mixture of isomers) [Ex-6]
[1]
  growth of the pathogen: 23%

## Cc1cc(C2c3ccccc3OCC3(CC3)N2C)cnc1C(F)F (centres unmarked) [Ex-1, 5-(6-(difluoromethyl)-5-methylpyridin-3-yl)-4-methyl-4,5-dihydro-2H-spiro[benzo[f][1,4]oxazepine-3,1′-cyclopropane]]
[1]
  growth of the pathogen: 23%
[2]
  growth of the pathogen: 1%

## Cc1cc(C2NC(C)C(C)(C)Oc3c(F)cccc32)cnc1C(F)F (mixture of isomers) [Ex-7]
[1]
  growth of the pathogen: 23%
[3]
  growth of the pathogen (% diseased leaf area): at most 1%
